Values after ≈ are worked out from the molar mass of the structure shown. Read-outs that look alike come from different tables or passages of the source.
How the values were obtained:
[1] = system: Streptococcus spp. clinical isolates; assay: MIC distribution against clinical isolates; type: cell-based; details: 54 Streptococcus spp. isolates
From the text: (n=19 S. pyogenes, n=20 S. agalactiae and n=20 Viridans group Streptococcus) clinical isolates (μg/mL).
(§1) As used herein, “minimum inhibitory concentration” or “MIC” refers to the lowest concentration of an antimicrobial agent, for example, an antimicrobial agent as described herein, required to inhibit the growth of an organism. […] “MIC90” represents the MIC value at which ≥90% of the strains within a test population are inhibited; the 90th percentile.
(§2) Many susceptibility testing methods are known in the art and can be used as described herein (see, e.g., Jorgensen and Ferraro (2009) Clinical Infectious Diseases 49:1749-1755; and Maurer et al. (2017) Infectious Disease Reports 9:6839; the entire contents of each of the foregoing are incorporated herein by reference). For example, antimicrobial susceptibility can be determined using conventional culture based methods such as the broth or agar dilution test. In these dilution tests, the bacterial isolate of interest is inoculated onto different media that include serial dilutions of an antimicrobial agent, and incubated under appropriate conditions (e.g., overnight at 37° C.) to allow for growth to occur. Following the incubation period, the media is examined to determine bacterial growth. The lowest concentration of antibiotic that prevents growth represents the minimal inhibitory concentration (MIC). Broth dilution tests can be miniaturized and mechanized allowing for reproducibility and high throughput.

[2] = system: Streptococcus pyogenes clinical isolates; assay: MIC distribution against clinical isolates; type: cell-based; details: 19 S. pyogenes isolates
From the text: as §1, §2

[3] = system: Viridans group Streptococci clinical isolates; assay: MIC distribution against clinical isolates; type: cell-based; details: 15 Viridans group Streptococci isolates
From the text: as §1, §2

Staphylococcus aureus = assay: Broth microdilution MIC, 50 clinical isolates (28 MRSA); type: cell-based
Method: (§3) Minimal inhibitory concentration (MIC) values were determined by broth microdilution or agar dilution in accordance with guidelines from the Clinical and Laboratory Standards Institute (CLSI; (1) “Methods for Dilution Antimicrobial Susceptibility Tests for Bacteria That Grow Aerobically; Approved Standard; 11th ed.” CLSI standard M07-A11, 2018; (2) “Performance Standards for Antimicrobial Susceptibility Testing; Twenty-Eighth Informational Supplement,” CLSI document M100-S28, 2018; and (3) “Methods for Antimicrobial Susceptibility Testing of Anaerobic Bacteria; Approved Standard—Eighth Edition,” CLSI document M11-A8, 2012).
(§4) Tested aerobically by broth microdilution: • Escherichia coli, n=50 • Klebsiella spp., n=50 • Pseudomonas aeruginosa, n=50 • Streptococcus spp., n=50 • Staphylococcus aureus, n=50 • Enterococcus faecalis, n=50 • Enterobacter aerogenes, n=50 • Proteus mirabilis, n=50
(§5) Broth microdilution testing of aerobic bacteria was conducted in cation-adjusted Mueller Hinton broth (MHBII). For testing streptococci, lysed horse blood (LHB) was added to MHBII broth at a final concentration of 3%. Where LHB was used, it was added after filtering.
(§6) Broth microdilution susceptibility testing in 96-well microplates was conducted in accordance with CLSI methods (1) and (2). Automated liquid handlers were used to conduct serial dilutions and liquid transfers, including the Multidrop 384 (Labsystems, Helsinki, Finland), Biomek 2000, and the Biomek FX (Beckman Coulter, Fullerton, Calif.). All wells in columns 2 through 12 of a standard 96-well microdilution plate (Costar 3795) were filled with 150 μL of the appropriate diluent. Then, 300 μL of the test agents were added to the wells of column 1 of the plates at 100× the highest final concentration to be tested. Serial two-fold dilutions were made across the rows through column 11 using the Biomek 2000. The wells of column 12 contained no drug and served as the growth control wells. This plate served as the “mother plate” from which MIC assay plates or “daughter plates” were made.
(§7) The daughter plates were loaded with 190 μL per well of the appropriate medium using the Multidrop 384. The daughter plates were created using the Biomek FX which transferred 2 μL of drug solution from each well of a mother plate to each corresponding well of the daughter plate in a single step. A standardized inoculum of each test organism was prepared per CLSI methods (1) to equal a 0.5 McFarland standard, followed by a dilution of 1:20 for aerobes and 1:10 for anaerobes. The plates were then inoculated with 10 μL of the diluted inoculum using the Biomek 2000 from low to high drug concentration, resulting in a final concentration of approximately 5×10^5 CFU/mL per well. An un-inoculated plate was incubated in parallel for each medium for the purpose of assessing solubility of the drug in the test media.
(§8) Inoculated plates were stacked 3 or 4 high, covered with a sterile lid on the top plate, placed into boxes with CO2 planchets (streptococci) or plastic bags (all other isolates). Plates were incubated at 35° C. for 16-24 hr in ambient air for aerobes or for 42-48 hr in the anaerobic environment of the Bactron II anaerobe chamber (Sheldon Manufacturing Co.; Cornelius, Oreg.). Following incubation, the microplates were removed from the incubator and viewed from the bottom using a plate viewer. The MIC values were read and recorded as the lowest concentration of drug that inhibited visible growth of the organism as per CLSI methods (1) and (2).

Streptococcus pyogenes = assay: Broth microdilution MIC, 19 clinical isolates; type: cell-based
Method: as §3, §4, §5, §6, §7, §8

E. coli ATCC 25922 = assay: Broth microdilution MIC (time-kill study); type: cell-based, Escherichia coli
B. fragilis ATCC 25285 = assay: Broth microdilution MIC (time-kill study); type: cell-based, Bacteroides fragilis
S. pyogenes ATCC 49399 = assay: Time-kill assay; type: cell-based, Streptococcus pyogenes; details: 2×, 4×, 8× MIC; 2, 6, 24 hr
[4] = Staphylococcus aureus, read-out: MIC50
[5] = Staphylococcus aureus, read-out: MIC90
[6] = Streptococcus pyogenes, read-out: MIC50
[7] = Streptococcus pyogenes, read-out: MIC90
[8] = Escherichia coli, ATCC25922, broth microdilution, read-out: MIC
[9] = Bacteroides fragilis, ATCC25285, broth microdilution, read-out: MIC

## CO/N=C(\C(=O)N[C@@H]1C(=O)N2C(C(=O)O)=C(CSc3nc(=O)c(=O)[nH]n3C)CS[C@H]12)c1csc(N)n1 [ceftriaxone]
[1]; MIC 0.008 μg/mL
  Cumulative percentage of isolates inhibited at MIC: 1.9%
  Number of test isolates at MIC: 1
[1]; MIC 0.015 μg/mL
  Cumulative percentage of isolates inhibited at MIC: 35.2%
  Number of test isolates at MIC: 18
[1]; MIC 0.03 μg/mL
  Cumulative percentage of isolates inhibited at MIC: 51.9%
  Number of test isolates at MIC: 9
[1]; MIC 0.06 μg/mL
  Cumulative percentage of isolates inhibited at MIC: 87.0%
  Number of test isolates at MIC: 19
[1]; MIC 0.5 μg/mL
  Cumulative percentage of isolates inhibited at MIC: 98.1%
  Number of test isolates at MIC: 1
[1]; MIC 1 μg/mL
  Cumulative percentage of isolates inhibited at MIC: 100.0%
  Number of test isolates at MIC: 1
[2]; MIC 0.015 μg/mL
  Cumulative percentage of isolates inhibited at MIC: 84.2%
  Number of test isolates at MIC: 16
[2]; MIC 0.03 μg/mL
  Cumulative percentage of isolates inhibited at MIC: 94.7%
  Number of test isolates at MIC: 2
[2]; MIC 0.06 μg/mL
  Cumulative percentage of isolates inhibited at MIC: 100.0%
  Number of test isolates at MIC: 1
[3]; MIC 0.008 μg/mL
  Cumulative percentage of isolates inhibited at MIC: 6.7%
  Number of test isolates at MIC: 1
[3]; MIC 0.015 μg/mL
  Cumulative percentage of isolates inhibited at MIC: 20.0%
  Number of test isolates at MIC: 2
[3]; MIC 0.03 μg/mL
  Cumulative percentage of isolates inhibited at MIC: 33.3%
  Number of test isolates at MIC: 2
[3]; MIC 0.06 μg/mL
  Cumulative percentage of isolates inhibited at MIC: 66.7%
  Number of test isolates at MIC: 5
[3]; MIC 0.5 μg/mL
  Cumulative percentage of isolates inhibited at MIC: 93.3%
  Number of test isolates at MIC: 1
[3]; MIC 1 μg/mL
  Cumulative percentage of isolates inhibited at MIC: 100.0%
  Number of test isolates at MIC: 1
Staphylococcus aureus
  Mode: >64 µg/mL
Staphylococcus aureus; [4]
  MIC50: 32 µg/mL (≈ 57.7 µM)
Staphylococcus aureus; [5]
  MIC90: > 64 µg/mL
Staphylococcus aureus; listed as CTR
  MIC90: >64 µg/mL
Streptococcus pyogenes
  % S: 100%
  MIC range: 0.015 to 0.06 µg/mL
  Mode: 0.015 µg/mL
Streptococcus pyogenes; [6]
  MIC50: 0.015 µg/mL (≈ 0.027 µM)
Streptococcus pyogenes; [7]
  MIC90: 0.03 µg/mL (≈ 0.0541 µM)
E. coli ATCC 25922; E. coli ATCC 25922
  MIC: 0.06 µg/mL (≈ 0.108 µM)
E. coli ATCC 25922; [8]
  MIC: 0.06 µg/mL (≈ 0.108 µM)
B. fragilis ATCC 25285; B. fragilis MMX 123 ATCC 25285
  MIC: 32 µg/mL (≈ 57.7 µM)
B. fragilis ATCC 25285; [9]
  MIC: 32 µg/mL (≈ 57.7 µM)
S. pyogenes ATCC 49399
  time-kill kinetics outcome (bactericidal = ≥3 log reduction in CFU per mL): bactericidal effect at 4× and 8×MIC at 24 hr

## C[C@@H](O)[C@H]1C(=O)N2C(C(=O)O)=C(S[C@@H]3CN[C@H](C(=O)N(C)C)C3)[C@H](C)[C@H]12 [meropenem]
[1]; MIC 0.004 μg/mL
  Cumulative percentage of isolates inhibited at MIC: 29.6%
  Number of test isolates at MIC: 15
[1]; MIC 0.008 μg/mL
  Cumulative percentage of isolates inhibited at MIC: 40.7%
  Number of test isolates at MIC: 6
[1]; MIC 0.015 μg/mL
  Cumulative percentage of isolates inhibited at MIC: 57.4%
  Number of test isolates at MIC: 9
[1]; MIC 0.03 μg/mL
  Cumulative percentage of isolates inhibited at MIC: 92.6%
  Number of test isolates at MIC: 19
[1]; MIC 0.06 μg/mL
  Cumulative percentage of isolates inhibited at MIC: 94.4%
  Number of test isolates at MIC: 1
[1]; MIC 0.5 μg/mL
  Cumulative percentage of isolates inhibited at MIC: 100.0%
  Number of test isolates at MIC: 2
[1]; MIC […]
  Cumulative percentage of isolates inhibited at MIC: 96.3%
  Number of test isolates at MIC: 1
[1]; MIC ≤0.002 μg/mL
  Cumulative percentage of isolates inhibited at MIC: 1.9%
  Number of test isolates at MIC: 1
[2]; MIC 0.004 μg/mL
  Cumulative percentage of isolates inhibited at MIC: 78.9%
  Number of test isolates at MIC: 14
[2]; MIC 0.008 μg/mL
  Cumulative percentage of isolates inhibited at MIC: 94.7%
  Number of test isolates at MIC: 3
[2]; MIC 0.03 μg/mL
  Cumulative percentage of isolates inhibited at MIC: 100.0%
  Number of test isolates at MIC: 1
[2]; MIC ≤0.002 μg/mL
  Cumulative percentage of isolates inhibited at MIC: 5.3%
  Number of test isolates at MIC: 1
[3]; MIC 0.004 μg/mL
  Cumulative percentage of isolates inhibited at MIC: 6.7%
  Number of test isolates at MIC: 1
[3]; MIC 0.008 μg/mL
  Cumulative percentage of isolates inhibited at MIC: 26.7%
  Number of test isolates at MIC: 3
[3]; MIC 0.015 μg/mL
  Cumulative percentage of isolates inhibited at MIC: 60.0%
  Number of test isolates at MIC: 5
[3]; MIC 0.03 μg/mL
  Cumulative percentage of isolates inhibited at MIC: 80.0%
  Number of test isolates at MIC: 3
[3]; MIC 0.5 μg/mL
  Cumulative percentage of isolates inhibited at MIC: 100.0%
  Number of test isolates at MIC: 2
[3]; MIC […]
  Cumulative percentage of isolates inhibited at MIC: 86.7%
  Number of test isolates at MIC: 1
Staphylococcus aureus
  Mode: 0.12 µg/mL
Staphylococcus aureus; [4]
  MIC50: 1 µg/mL (≈ 2.61 µM)
Staphylococcus aureus; [5]
  MIC90: 8 µg/mL (≈ 20.9 µM)
Streptococcus pyogenes
  % S: 100%
  MIC range: ≤0.002-0.03^ μg/mL
  Mode: 0.004 µg/mL
Streptococcus pyogenes; [6]
  MIC50: 0.004 µg/mL (≈ 0.0104 µM)
Streptococcus pyogenes; [7]
  MIC90: 0.008 µg/mL (≈ 0.0209 µM)
E. coli ATCC 25922; E. coli ATCC 25922
  MIC: 0.015 µg/mL (≈ 0.0391 µM)
E. coli ATCC 25922; [8]
  MIC: 0.015 µg/mL (≈ 0.0391 µM)
B. fragilis ATCC 25285; B. fragilis MMX 123 ATCC 25285
  MIC: 0.06 µg/mL (≈ 0.156 µM)
B. fragilis ATCC 25285; [9]
  MIC: 0.06 µg/mL (≈ 0.156 µM)
S. pyogenes ATCC 49399
  time-kill kinetics outcome (bactericidal = ≥3 log reduction in CFU per mL): bactericidal effect at 4× and 8×MIC at 24 hr

## CO[C@H]1/C=C/O[C@@]2(C)Oc3c(C)c(O)c4c(O)c(c5c(nc6cc(C)ccn65)c4c3C2=O)NC(=O)/C(C)=C\C=C\[C@H](C)[C@H](O)[C@@H](C)[C@@H](O)[C@@H](C)[C@H](OC(C)=O)[C@@H]1C [rifaximin]
[2]; MIC 0.06 μg/mL
  Number of test isolates at MIC: 6
[3]; MIC 0.06 μg/mL
  Number of test isolates at MIC: 6
Staphylococcus aureus
  MIC50: 0.015 µg/mL (≈ 0.0191 µM)
  MIC90: 0.06 µg/mL (≈ 0.0763 µM)
  MIC range: 0.008 to 32 µg/mL
  Mode: 0.015 µg/mL
  relative activity among drugs tested: most active drug tested
Streptococcus pyogenes
  MIC50: 0.06 µg/mL (≈ 0.0763 µM)
  MIC90: 0.25 µg/mL (≈ 0.318 µM)
  MIC range: 0.015 to 0.25 µg/mL
  Mode: 0.06 µg/mL
E. coli ATCC 25922; E. coli ATCC 25922
  MIC: 8 µg/mL (≈ 10.2 µM)
E. coli ATCC 25922; broth microdilution
  MIC: 8 µg/mL (≈ 10.2 µM)
B. fragilis ATCC 25285; B. fragilis MMX 123 ATCC 25285
  MIC: 0.5 µg/mL (≈ 0.636 µM)
B. fragilis ATCC 25285; broth microdilution
  MIC: 0.05 µg/mL (≈ 0.0636 µM)
S. pyogenes ATCC 49399
  time-kill kinetics outcome (bactericidal = ≥3 log reduction in CFU per mL): bacteriostatic effect against this organism at 2×, 4×, and 8× the MIC
